Data: patent publication US20240279710A1, “FLUORESCENT PROBES” (TOHOKU TECHNO ARCH CO., LTD., priority 2021, published 2024)

Experiments:
[1] = target: T1, calpain-1 from human erythrocytes (Homo sapiens, UniProt P07384); experiment: Fluorescence assay with calpain-1; type: biochemical; settings: 10 μM probe, 17.4 U/mL calpain-1, 5 mM CaCl2, 37° C., excitation 475 nm, fluorescence 500-550 nm; for increase in fluorescence intensity 10 minutes after the addition of calpain-1: FIG. 5(b)
T1 construct: calpain-1 from human erythrocytes; purchased Merck Millipore 208713; host or cells: human erythrocytes (natural source)
T1 sequence (P07384 1-714): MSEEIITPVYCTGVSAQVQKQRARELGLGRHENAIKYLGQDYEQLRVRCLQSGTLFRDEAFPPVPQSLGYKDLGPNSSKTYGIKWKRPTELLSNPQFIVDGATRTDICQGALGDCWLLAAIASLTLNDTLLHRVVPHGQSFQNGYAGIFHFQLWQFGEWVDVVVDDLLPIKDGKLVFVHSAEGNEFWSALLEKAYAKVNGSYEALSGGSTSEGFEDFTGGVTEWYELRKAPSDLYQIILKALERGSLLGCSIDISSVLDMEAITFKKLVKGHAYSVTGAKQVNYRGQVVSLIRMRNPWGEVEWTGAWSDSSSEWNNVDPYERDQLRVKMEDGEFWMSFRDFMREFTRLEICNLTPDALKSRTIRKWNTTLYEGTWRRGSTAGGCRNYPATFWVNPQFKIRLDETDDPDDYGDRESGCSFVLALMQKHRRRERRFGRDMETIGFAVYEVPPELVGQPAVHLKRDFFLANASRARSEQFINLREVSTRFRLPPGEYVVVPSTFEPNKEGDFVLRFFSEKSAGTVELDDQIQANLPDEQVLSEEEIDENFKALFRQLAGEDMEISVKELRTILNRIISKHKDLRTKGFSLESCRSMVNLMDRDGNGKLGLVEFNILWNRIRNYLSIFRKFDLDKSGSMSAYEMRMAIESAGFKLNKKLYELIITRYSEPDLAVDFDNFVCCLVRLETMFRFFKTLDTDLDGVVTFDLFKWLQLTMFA
T1 sequence (P04632 1-268 partner): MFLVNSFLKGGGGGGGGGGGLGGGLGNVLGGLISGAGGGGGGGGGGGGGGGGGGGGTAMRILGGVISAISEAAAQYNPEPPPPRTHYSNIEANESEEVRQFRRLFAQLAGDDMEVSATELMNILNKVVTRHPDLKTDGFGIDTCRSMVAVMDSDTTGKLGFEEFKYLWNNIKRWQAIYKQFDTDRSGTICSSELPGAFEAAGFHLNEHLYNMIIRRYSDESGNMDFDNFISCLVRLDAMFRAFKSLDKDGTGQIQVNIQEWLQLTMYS
Protocol: The fluorescence assays of Compound 19 and Compound 16 with time were performed. Specifically, 17.4 U/mL of calpain-1 and 5 mM CaCl2 were added to a 50 mM TRIS buffer (pH: 7.4, 2 mM EGTA, 2 mM DTE) containing 10 μM of each of the synthesized fluorescent probes to perform an enzyme reaction at 37° C. Each of the compounds to which calpain-1 and CaCl2 were not added was similarly subjected as a negative control to the measurement.
The fluorescence assays of Compounds 16 to 36 were similarly performed. 50 Units per milliliter (Compounds 16 and 19 to 25) or 17.4 U/mL (Compounds 16 to 18 and 26 to 36) of calpain-1 and 5 mM CaCl2 were added to a 50 mM TRIS buffer (pH: 7.4, 2 mM EGTA, 2 mM DTE) containing 10 μM of each of the synthesized fluorescent probes to perform an enzyme reaction at 37° C.
Next, similar fluorescence assays of Compounds 37, 42, 45, 48, 51, 53, 55, 57, and 59 with calpain-1 were performed. Specifically, 17.4 U/mL of calpain-1 and 5 mM CaCl2 were added to a 50 mM TRIS buffer (pH: 7.4, 2 mM EGTA, 2 mM DTE) containing 10 μM of each of the synthesized fluorescent probes to perform an enzyme reaction at 37° C. Each of the compounds to which calpain-1 was not added was used as a control.
To evaluate an influence of a R^12-L-O— group on the reactivity of each of compounds having the same amino acids with calpain-1, the fluorescence assays of Compounds 37 to 66 with calpain-1 were performed in accordance with the above-mentioned method. Specifically, 17.4 U/mL of calpain-1 and 5 mM CaCl2 were added to a 50 mM TRIS buffer (pH: 7.4, 2 mM EGTA, 2 mM DTE) containing 10 μM of each of the synthesized fluorescent probes to perform an enzyme reaction at 37° C., followed by the measurement of an increase in fluorescence intensity of each of the compounds 10 minutes after the addition of calpain-1.

[2] = test system: SH-SY5Y cells; experiment: Live cell imaging of calpain activity in SH-SY5Y cells; type: cell-based; settings: 5 μM probe, 10 minutes incubation, confocal microscope; FIG. 12
Protocol: Whether or not the improvement in enzymatic reactivity between the compound of the present invention and a calpain confirmed by the above-mentioned experiment remained the same even in a cell was verified. Calpain activity imaging in SH-SY5Y cells was performed on each of Compounds 16 and 19. Specifically, the SH-SY5Y cells (American Type Culture Collection, VA, USA) were cultured in a mixed medium of Dulbecco's modified eagle medium and Ham's F-12 medium (DMEM/F-12; Thermo Fisher Scientific, Inc.) (containing 10% fetal bovine serum (FBS; Thermo Fisher Scientific, Inc., MA, USA) and 100 U/mL penicillin-100 μg/mL streptomycin (PS; Thermo Fisher Scientific, Inc.)) under the conditions of 37° C. and 5% CO2-95% air. 6×10^4 to 8×10^4 Cells/well of the cells were seeded in a multiwell plate (μ-Plate 96 Well; ibidi, Grafelfing, Germany) coated with poly-D-lysine (Thermo Fisher Scientific, Inc.) and laminin (BD Biosciences, CA, USA), and were preincubated in a culture solution. Immediately after the removal of the culture solution in the wells, 200 μL of an assay solution (a culture solution containing a 5 μM probe) was added thereto, and the cells were incubated under the conditions of 37° C. and 5% CO2-95% air. 10 Minutes after that, a bright field image and a fluorescence image were taken with a confocal microscope (LSM 710, Carl Zeiss AG, Oberkochen, Germany).
Calpain activity imaging in SH-SY5Y cells was performed on each of Compounds 20 to 23, Compound 38, and Compound 56 in the same manner as in Example 9. In the case of each of Compounds 20 to 23 and Compound 38, a bright field image and a fluorescence image were taken after 30 minutes of incubation of the cells, and in the case of Compound 56, such images were taken after 20 minutes of incubation thereof.

[3] = test system: calpain; experiment: Rabbit NMDA injury model, ocular fundus imaging; type: in vivo; settings: for staining of nerve cells with HMRG in ocular fundus: 30, 45 and 60 minutes after probe into the eye (Compound 19 18.3 μM 19 μL; Compound 16 20 μM 19 μl or 38 μl)
Protocol: Black Dutch rabbits were each subjected to general anesthesia with a mixed liquid of ketamine and xylazine. N-Methyl-D-aspartate (NMDA) (12 mM, 50 μL) or PBS was administered into an eye of the rabbit. 9 Hours after that, the rabbit was anesthetized with a mixed liquid of ketamine and xylazine again, and Compound 19 (18.3 μM, 19 μL), Compound 16 (20 μM, 19 μl), or Compound 16 (20 μM, 38 μl) was administered into the eye. Images of an ocular fundus were taken with Mirante (a confocal scanning diode laser ophthalmoscope manufactured by Nidek Co., Ltd.) before the administration of each of the compounds and after the lapse of a predetermined time from the administration.

SMILES | change in fluorescence intensity with time by calpain-1 ([1]; FIG. 4) | calpain activity imaging in SH-SY5Y cells [2] | number of HMRG-positive cells in PBS rabbits compared to NMDA rabbits ([3]; Compound 19 (19 μL) and Compound 16 (38 μl), FIG. 23) | staining of nerve cells with HMRG in ocular fundus ([3]; rabbits administered NMDA (12 mM, 50 μL)) | staining of nerve cells with HMRG in ocular fundus ([3]; rabbits administered PBS) | increase in fluorescence intensity 10 minutes after the addition of calpain-1 [1]
CSCC[C@H](NC(=O)[C@H](CC(C)C)NC(C)=O)C(=O)Nc1ccc2c(c1)Oc1cc(N)ccc1C21OCc2ccccc21 (stereo partly shown) [Compound 16, reference compound] | functioned as a fluorescent probe for calpain-1 | enabled the observation of calpain activity in the SH-SY5Y cells | significantly reduced | many nerve cells were clearly stained with HMRG | substantially no staining of the nerve cells with HMRG | –
CCC(=O)N[C@@H](CC(C)C)C(=O)N[C@@H](CCSC)C(=O)Nc1ccc2c(c1)Oc1cc(N)ccc1C21OCc2ccccc21 (stereo partly shown) [Compound 17] | – | – | – | – | – | reduced in fluorescence intensity as compared to Compound 16
CCCC(=O)N[C@@H](CC(C)C)C(=O)N[C@@H](CCSC)C(=O)Nc1ccc2c(c1)Oc1cc(N)ccc1C21OCc2ccccc21 (stereo partly shown) [Compound 18] | – | – | – | – | – | reduced in fluorescence intensity as compared to Compound 16
